Experimental data from article PMC7176092, “Development of the first in vivo GPR17 ligand through an iterative drug discovery pipeline: A novel disease-modifying strategy for multiple sclerosis” (PLoS ONE, 2020).
Values joined by “and” are separate entries in the source; they are usually repeats but may differ in a detail not shown here. Identical values can stand only once. Like-named read-outs stand apart in the source and are kept apart here.

What was measured:
[1] = target: T1, APJ (Homo sapiens, UniProt P35414); assay: Binding assay APJ; conditions: 100 nM
T1 construct: Eurofins Cerep (external service)
T1 sequence (P35414 1-380): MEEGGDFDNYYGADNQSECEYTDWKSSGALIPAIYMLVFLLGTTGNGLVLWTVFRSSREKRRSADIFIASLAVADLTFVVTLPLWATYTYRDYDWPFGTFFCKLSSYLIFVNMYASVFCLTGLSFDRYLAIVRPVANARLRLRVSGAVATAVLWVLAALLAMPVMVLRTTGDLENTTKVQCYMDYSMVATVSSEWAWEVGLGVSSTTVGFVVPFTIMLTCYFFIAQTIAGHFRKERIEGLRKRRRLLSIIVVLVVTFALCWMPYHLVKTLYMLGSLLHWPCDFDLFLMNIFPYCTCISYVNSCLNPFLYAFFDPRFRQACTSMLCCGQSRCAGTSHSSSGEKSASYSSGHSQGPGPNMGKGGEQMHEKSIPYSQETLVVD

[2] = target: T2, M5 (Homo sapiens, UniProt P08912); assay: Binding assay M5; conditions: 100 nM
T2 construct: Eurofins Cerep (external service)
T2 sequence (P08912 1-532): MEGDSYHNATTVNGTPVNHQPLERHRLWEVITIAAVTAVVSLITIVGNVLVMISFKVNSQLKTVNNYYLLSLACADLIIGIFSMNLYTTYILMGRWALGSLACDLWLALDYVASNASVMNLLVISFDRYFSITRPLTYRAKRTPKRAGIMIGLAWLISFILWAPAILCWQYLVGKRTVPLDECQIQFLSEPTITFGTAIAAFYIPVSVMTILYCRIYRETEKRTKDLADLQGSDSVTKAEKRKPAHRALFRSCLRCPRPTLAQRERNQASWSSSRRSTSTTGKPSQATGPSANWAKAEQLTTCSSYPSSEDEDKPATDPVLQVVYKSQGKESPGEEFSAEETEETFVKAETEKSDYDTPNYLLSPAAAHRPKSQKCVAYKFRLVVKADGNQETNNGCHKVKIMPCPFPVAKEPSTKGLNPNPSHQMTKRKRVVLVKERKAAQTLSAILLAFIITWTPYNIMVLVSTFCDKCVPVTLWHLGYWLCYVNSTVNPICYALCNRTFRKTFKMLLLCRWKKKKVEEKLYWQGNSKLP

[3] = target: T3, CXCR2 (Homo sapiens, UniProt P25025); assay: Binding assay CXCR2; conditions: 100 nM
T3 construct: Eurofins Cerep (external service)
T3 sequence (P25025 1-360): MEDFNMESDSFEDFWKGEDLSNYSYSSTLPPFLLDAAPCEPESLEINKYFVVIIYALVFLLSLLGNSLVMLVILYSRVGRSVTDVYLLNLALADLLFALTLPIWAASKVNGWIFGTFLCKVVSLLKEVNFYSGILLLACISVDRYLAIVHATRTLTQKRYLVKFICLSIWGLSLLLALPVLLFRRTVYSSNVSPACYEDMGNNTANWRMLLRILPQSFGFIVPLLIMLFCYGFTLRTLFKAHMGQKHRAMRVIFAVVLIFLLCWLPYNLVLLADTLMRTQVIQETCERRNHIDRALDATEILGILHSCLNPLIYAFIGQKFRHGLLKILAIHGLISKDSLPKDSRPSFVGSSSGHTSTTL

[4] = target: T4, CCR2 (Homo sapiens, UniProt P41597); assay: Binding assay CCR2; conditions: 100 nM
T4 construct: Eurofins Cerep (external service)

[5] = target: T5, CCR1 (Homo sapiens, UniProt P32246); assay: Binding assay CCR1; conditions: 100 nM
T5 construct: Eurofins Cerep (external service)
T5 sequence (P32246 1-355): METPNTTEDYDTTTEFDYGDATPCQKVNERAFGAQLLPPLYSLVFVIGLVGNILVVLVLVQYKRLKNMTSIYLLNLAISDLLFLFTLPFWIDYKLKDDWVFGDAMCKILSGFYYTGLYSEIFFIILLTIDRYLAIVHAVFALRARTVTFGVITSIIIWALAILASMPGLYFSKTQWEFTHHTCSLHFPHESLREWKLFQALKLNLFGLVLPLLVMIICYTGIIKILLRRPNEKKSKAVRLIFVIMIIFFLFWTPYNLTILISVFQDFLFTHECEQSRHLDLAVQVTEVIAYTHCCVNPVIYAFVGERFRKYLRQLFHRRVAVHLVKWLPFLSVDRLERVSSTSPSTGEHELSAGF

[6] = target: T6, CXCR1 (Homo sapiens, UniProt P25024); assay: Cellular functional assay CXCR1
T6 sequence (P25024 1-350): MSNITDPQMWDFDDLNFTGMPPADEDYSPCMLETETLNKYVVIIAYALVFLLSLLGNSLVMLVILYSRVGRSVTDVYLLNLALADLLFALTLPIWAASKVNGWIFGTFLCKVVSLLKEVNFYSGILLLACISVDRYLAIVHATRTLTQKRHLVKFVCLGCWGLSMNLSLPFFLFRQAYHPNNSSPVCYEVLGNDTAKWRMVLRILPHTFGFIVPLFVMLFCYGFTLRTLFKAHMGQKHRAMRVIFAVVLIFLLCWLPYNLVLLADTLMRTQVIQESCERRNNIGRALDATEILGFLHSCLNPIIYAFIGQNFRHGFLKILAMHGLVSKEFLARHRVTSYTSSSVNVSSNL

[7] = target: T7, mGluR1 (Homo sapiens, UniProt Q13255); assay: Binding assay mGluR1; conditions: 100 nM
T7 construct: Eurofins Cerep (external service)

[8] = mean of 2, read-out: % Of control specific binding, Mean
[9] = read-out: % Inhibition of control specific binding
[10] = single replicates 1 and 2, 0.1 µM
[11] = single replicates 1 and 2, read-out: % Of control specific binding

T4 sequence (P41597 whole entry): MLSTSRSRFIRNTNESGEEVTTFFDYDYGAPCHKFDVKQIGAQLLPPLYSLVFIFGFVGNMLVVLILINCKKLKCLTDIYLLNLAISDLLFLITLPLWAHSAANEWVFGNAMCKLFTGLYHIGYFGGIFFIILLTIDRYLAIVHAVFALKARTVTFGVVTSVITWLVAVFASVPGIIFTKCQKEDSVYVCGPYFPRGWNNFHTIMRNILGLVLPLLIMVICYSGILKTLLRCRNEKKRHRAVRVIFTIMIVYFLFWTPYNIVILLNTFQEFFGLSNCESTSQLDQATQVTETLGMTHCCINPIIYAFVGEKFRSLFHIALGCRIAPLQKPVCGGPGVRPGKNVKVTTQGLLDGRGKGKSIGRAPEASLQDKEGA
T7 sequence (Q13255 19-1194): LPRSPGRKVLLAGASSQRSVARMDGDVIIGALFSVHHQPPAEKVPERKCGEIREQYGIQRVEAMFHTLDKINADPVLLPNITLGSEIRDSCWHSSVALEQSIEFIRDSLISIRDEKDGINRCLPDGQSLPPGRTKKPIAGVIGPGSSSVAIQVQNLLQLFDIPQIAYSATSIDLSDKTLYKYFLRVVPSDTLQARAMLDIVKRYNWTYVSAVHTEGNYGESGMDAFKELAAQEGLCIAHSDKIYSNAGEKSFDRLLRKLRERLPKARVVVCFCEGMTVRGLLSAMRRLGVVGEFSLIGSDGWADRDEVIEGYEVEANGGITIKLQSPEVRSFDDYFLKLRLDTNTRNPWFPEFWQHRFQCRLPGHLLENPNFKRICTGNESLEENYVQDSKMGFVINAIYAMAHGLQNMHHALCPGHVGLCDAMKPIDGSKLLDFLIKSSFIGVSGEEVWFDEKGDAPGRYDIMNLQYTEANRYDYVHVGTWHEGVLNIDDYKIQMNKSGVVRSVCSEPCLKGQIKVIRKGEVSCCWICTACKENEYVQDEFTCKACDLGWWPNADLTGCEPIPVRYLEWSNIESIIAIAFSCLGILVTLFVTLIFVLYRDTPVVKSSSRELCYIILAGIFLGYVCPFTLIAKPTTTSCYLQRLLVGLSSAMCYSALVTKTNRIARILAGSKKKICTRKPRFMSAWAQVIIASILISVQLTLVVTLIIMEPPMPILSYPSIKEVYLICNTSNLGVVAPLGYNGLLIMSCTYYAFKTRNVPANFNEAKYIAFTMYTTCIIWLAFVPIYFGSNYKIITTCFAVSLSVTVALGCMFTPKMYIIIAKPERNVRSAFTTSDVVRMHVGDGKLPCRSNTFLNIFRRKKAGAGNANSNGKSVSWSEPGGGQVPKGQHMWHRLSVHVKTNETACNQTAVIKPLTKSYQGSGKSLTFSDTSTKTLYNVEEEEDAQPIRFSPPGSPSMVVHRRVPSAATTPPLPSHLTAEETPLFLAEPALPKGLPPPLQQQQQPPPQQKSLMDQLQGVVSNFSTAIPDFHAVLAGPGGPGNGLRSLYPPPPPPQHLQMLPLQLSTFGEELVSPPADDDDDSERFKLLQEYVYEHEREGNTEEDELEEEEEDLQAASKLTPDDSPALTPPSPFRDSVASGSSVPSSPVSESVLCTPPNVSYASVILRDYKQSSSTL

Q: Which remaining activity at 0.1 µM [1, 8] does the source give for `Cc1ccc(-c2nnc(SCC(=O)Nc3nccs3)[nH]2)cc1` [Compound 9] here?
A: 107%

Q: What about the inhibition at 0.1 µM [1, 9] of the same compound?
A: -7%

Q: What about the “% Of control specific binding” value [1, 10] of the same compound?
A: 105.7%

Q: What about the remaining activity at 0.1 µM [1, 11] of the same compound?
A: 108%

Q: What about the remaining activity at 0.1 µM [2, 8] of the same compound?
A: 97.4%

Q: What about the inhibition at 0.1 µM [2, 9] of the same compound?
A: 3%

Q: And the “% Of control specific binding” value [2, 10]?
A: 105.1%

Q: And the remaining activity at 0.1 µM [2, 11]?
A: 89.7%

Q: What about the remaining activity at 0.1 µM [3, 8] of the same compound?
A: 97.3%

Q: And the inhibition at 0.1 µM [3, 9]?
A: 3%

Q: And the “% Of control specific binding” value [3, 10]?
A: 98.7%

Q: And the remaining activity at 0.1 µM [3, 11]?
A: 96%

Q: What about the remaining activity at 0.1 µM [4, 8] of the same compound?
A: 88.4%

Q: What about the inhibition at 0.1 µM [4, 9] of the same compound?
A: 12%

Q: What about the “% Of control specific binding” value [4, 10] of the same compound?
A: 88.9%

Q: What about the remaining activity at 0.1 µM [4, 11] of the same compound?
A: 88%

Q: What about the remaining activity at 0.1 µM [5, 8] of the same compound?
A: 108%

Q: What about the inhibition at 0.1 µM [5, 9] of the same compound?
A: -8%

Q: What about the “% Of control specific binding” value [5, 10] of the same compound?
A: 109%

Q: And the remaining activity at 0.1 µM [5, 11]?
A: 108%

Q: And the “Agonist Response (% of Control)” value ([6]; antagonist effect, 100 nM, single replicates 1st and 2nd, 0.1 µM)?
A: 105.5%

Q: And the inhibition at 0.1 µM ([6]; read-out: % Inhibition of control agonist response)?
A: -0.8%

Q: And the activity at 0.1 µM ([6]; read-out: Agonist Response (% of Control), Mean, antagonist effect, 100 nM, mean of 2)?
A: 96.3%

Q: What about the activity at 0.1 µM ([6]; read-out: Agonist Response (% of Control), antagonist effect, 100 nM, single replicates 1st and 2nd) of the same compound?
A: 87.1%

Q: And the remaining activity at 0.1 µM [7, 8]?
A: 114%

Q: What about the inhibition at 0.1 µM [7, 9] of the same compound?
A: -14%

Q: What about the “% Of control specific binding” value [7, 10] of the same compound?
A: 103.5% and 124.2%
